From ChEMBL document CHEMBL1201862, “PubChem BioAssay data set” (2004)
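Five concentrations, 48 hours, 96-well plates. GI50 marks 50% less growth.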 Activity calls are given as the source filed them. Cut-off read from the data, not from the text of the source: active = GI50 up to about 1.1 µM and inactive = higher.

Tests used:
Assay in all cases: NCI anticancer screen, dose series, 48 h
A549 = test system: A549
ACHN = test system: ACHN
CAKI-1 = test system: CAKI-1
CCRF-CEM = test system: CCRF-CEM
COLO 205 = test system: COLO 205
DU-145 = test system: DU-145
HCC 2998 = test system: HCC 2998
HCT-116 = test system: HCT-116
HCT-15 = test system: HCT-15
HL-60 = test system: HL-60
HOP-62 = test system: HOP-62
HOP-92 = test system: HOP-92
HT-29 = test system: HT-29
Hs-578T = test system: Hs-578T
IGROV-1 = test system: IGROV-1
K562 = test system: K562
LOX IMVI = test system: LOX IMVI
M14 = test system: M14
MCF7 = test system: MCF7
MDA-MB-231 = test system: MDA-MB-231
MDA-MB-435 = test system: MDA-MB-435
MDA-N = test system: MDA-N
MOLT-4 = test system: MOLT-4
NCI-H226 = test system: NCI-H226
NCI-H23 = test system: NCI-H23
NCI-H460 = test system: NCI-H460
NCI-H522 = test system: NCI-H522
NCI/ADR-RES = test system: NCI/ADR-RES
OVCAR-3 = test system: OVCAR-3
OVCAR-4 = test system: OVCAR-4
OVCAR-5 = test system: OVCAR-5
OVCAR-8 = test system: OVCAR-8
PC-3 = test system: PC-3
RPMI-8226 = test system: RPMI-8226
SF-295 = test system: SF-295
SK-MEL-28 = test system: SK-MEL-28
SK-MEL-2 = test system: SK-MEL-2
SK-MEL-5 = test system: SK-MEL-5
SK-OV-3 = test system: SK-OV-3
SN12C = test system: SN12C
SNB-19 = test system: SNB-19
SNB-75 = test system: SNB-75
SR = test system: SR
SW-620 = test system: SW-620
T47D = test system: T47D
TK-10 = test system: TK-10
U-251 = test system: U-251
UACC-257 = test system: UACC-257
UO-31 = test system: UO-31
786-0 = test system: 786-0
A498 = test system: A498
EKVX = test system: EKVX
KM12 = test system: KM12
RXF 393 = test system: RXF 393
SF-268 = test system: SF-268
SF-539 = test system: SF-539
UACC-62 = test system: UACC-62

CN1C[C@H]2[C@@H](C1=O)[C@H](c1ccccc1)ON2C
GI50 (A549): > 100 µM (inactive)
GI50 (ACHN): > 100 µM (inactive)
GI50 (CAKI-1): > 100 µM (inactive)
GI50 (CCRF-CEM): > 100 µM (inactive)
GI50 (COLO 205): > 100 µM (inactive)
GI50 (DU-145): > 100 µM (inactive)
GI50 (HCC 2998): > 100 µM (inactive)
GI50 (HCT-116): > 100 µM (inactive)
GI50 (HCT-15): > 100 µM
GI50 (HL-60): > 10 µM (inactive)
GI50 (HOP-62): > 100 µM (inactive)
GI50 (HOP-92): 59.2 µM (inactive)
GI50 (HT-29): > 100 µM (inactive)
GI50 (Hs-578T): > 100 µM (inactive)
GI50 (IGROV-1): > 100 µM (inactive)
GI50 (K562): > 100 µM (inactive)
GI50 (LOX IMVI): > 100 µM (inactive)
GI50 (M14): > 100 µM (inactive)
GI50 (MCF7): > 100 µM (inactive)
GI50 (MDA-MB-231): > 100 µM (inactive)
GI50 (MDA-MB-435): > 100 µM (inactive)
GI50 (MDA-N): > 100 µM (inactive)
GI50 (MOLT-4): > 100 µM (inactive)
GI50 (NCI-H226): > 100 µM (inactive)
GI50 (NCI-H23): > 100 µM (inactive)
GI50 (NCI-H460): > 100 µM (inactive)
GI50 (NCI-H522): > 100 µM (inactive)
GI50 (NCI/ADR-RES): > 100 µM (inactive)
GI50 (OVCAR-3): > 100 µM (inactive)
GI50 (OVCAR-4): > 100 µM (inactive)
GI50 (OVCAR-5): > 100 µM (inactive)
GI50 (OVCAR-8): > 100 µM (inactive)
GI50 (PC-3): > 100 µM (inactive)
GI50 (RPMI-8226): > 100 µM (inactive)
GI50 (SF-295): > 100 µM (inactive)
GI50 (SK-MEL-28): > 100 µM (inactive)
GI50 (SK-MEL-2): > 100 µM (inactive)
GI50 (SK-MEL-5): > 100 µM (inactive)
GI50 (SK-OV-3): > 100 µM (inactive)
GI50 (SN12C): > 100 µM (inactive)
GI50 (SNB-19): > 100 µM (inactive)
GI50 (SNB-75): > 100 µM (inactive)
GI50 (SR): > 100 µM (inactive)
GI50 (SW-620): > 100 µM (inactive)
GI50 (T47D): > 100 µM (inactive)
GI50 (TK-10): > 100 µM (inactive)
GI50 (U-251): > 100 µM (inactive)
GI50 (UACC-257): > 100 µM (inactive)
GI50 (UO-31): > 100 µM (inactive)

Cc1ccc(O)c(C(c2cc(C)ccc2O)c2cc([N+](=O)[O-])ccc2O)c1
GI50 (786-0): 16.1 µM (inactive)
GI50 (A498): 17.2 µM (inactive)
GI50 (A549): 12.1 µM (inactive)
GI50 (ACHN): 13.2 µM (inactive)
GI50 (CAKI-1): 12.2 µM (inactive)
GI50 (CCRF-CEM): 13.6 µM (inactive)
GI50 (COLO 205): 17.8 µM (inactive)
GI50 (DU-145): 17.3 µM (inactive)
GI50 (EKVX): 15.2 µM (inactive)
GI50 (HCC 2998): 12.4 µM (inactive)
GI50 (HCT-116): 24.6 µM (inactive)
GI50 (HCT-15): 16.3 µM
GI50 (HL-60): 3.42 µM (inactive)
GI50 (HOP-62): 13.4 µM (inactive)
GI50 (HOP-92): 14.8 µM (inactive)
GI50 (HT-29): 15 µM (inactive)
GI50 (Hs-578T): 7.71 µM (inactive)
GI50 (IGROV-1): 10.3 µM (inactive)
GI50 (K562): 23.1 µM (inactive)
GI50 (KM12): 7.74 µM (inactive)
GI50 (LOX IMVI): 31.7 µM (inactive)
GI50 (M14): 11 µM (inactive)
GI50 (MCF7): 14.5 µM (inactive)
GI50 (MDA-MB-231): 0.0604 µM (active)
GI50 (MDA-MB-435): 15 µM (inactive)
GI50 (MOLT-4): 6.12 µM (inactive)
GI50 (NCI-H226): 14.4 µM (inactive)
GI50 (NCI-H23): 12.4 µM (inactive)
GI50 (NCI-H522): 13.2 µM (inactive)
GI50 (NCI/ADR-RES): 21.1 µM (inactive)
GI50 (OVCAR-3): 12.4 µM (inactive)
GI50 (OVCAR-4): 11.8 µM (inactive)
GI50 (OVCAR-5): 14.3 µM (inactive)
GI50 (OVCAR-8): 3.66 µM (inactive)
GI50 (PC-3): 9.02 µM (inactive)
GI50 (RPMI-8226): 13.7 µM (inactive)
GI50 (RXF 393): 17.8 µM (inactive)
GI50 (SF-268): 7.62 µM (inactive)
GI50 (SF-295): 16.7 µM (inactive)
GI50 (SF-539): 15.7 µM (inactive)
GI50 (SK-MEL-28): 5.73 µM (inactive)
GI50 (SK-MEL-2): 13.7 µM (inactive)
GI50 (SK-MEL-5): 38.6 µM (inactive)
GI50 (SK-OV-3): 17.7 µM (inactive)
GI50 (SN12C): 14.7 µM (inactive)
GI50 (SNB-19): > 10 µM (inactive)
GI50 (SNB-75): 5.46 µM (inactive)
GI50 (SR): 8.43 µM (inactive)
GI50 (SW-620): 24.3 µM (inactive)
GI50 (T47D): 16.9 µM (inactive)
GI50 (TK-10): 17.4 µM (inactive)
GI50 (U-251): 15.7 µM (inactive)
GI50 (UACC-257): 16.6 µM (inactive)
GI50 (UACC-62): 15.9 µM (inactive)
GI50 (UO-31): 7.74 µM (inactive)
